According to patent publication US7351744B2, “Naphthalene derivatives as termite repellents and toxicants” (Board of Supervisors of Louisiana State University and …, priority 2003, dated 2008):
One block for each compound: values may come before it.

How the values were obtained:
[1] = Longevity and volatility of the eleven chemicals; type: physicochemical; conditions: among the eleven chemicals tested
termites = test: Naphthalene-related compounds, choice of treated or untreated food or sand; type: in vivo; conditions: no repellency up to this concentration; data not shown
Experimental: When termites were given a choice of treated or untreated food or sand, all four chemicals were repellents at concentrations of 40 μg/cm^2 treated filter paper or 100 mg/kg treated sand. […] Methoxynaphthalenes were more volatile than acetonaphthones and could spread more effectively into the untreated chambers. […] (Data not shown)

[2] = system: Formosan subterranean termites; conditions: other tested naturally occurring compounds; cited from earlier work

longevity [1]: highest longevity
volatility [1]: lowest volatility
SMILES: CC(=O)c1cccc2ccccc12 [1′-acetonaphthone]

SMILES: c1ccc2ccccc2c1 [Napthalene, naphthalene]
concentration showing repellency (termites): > 500 μg/cm^2

SMILES: C/C=C(\C)C(=O)O[C@H]1C[C@@H](OC(C)=O)[C@@]2(C(=O)OC)CO[C@H]3[C@@H](O)[C@@](C)([C@]45O[C@@]4(C)[C@H]4C[C@@H]5O[C@@H]5OC=C[C@@]54O)[C@H]4[C@]1(CO[C@]4(O)C(=O)OC)[C@@H]32 [azadirachtin]
concentration inhibiting tunneling and feeding behaviors [2]: 500 mg/kg

SMILES: C=C(C)[C@@H]1CCC2=CC(=O)C[C@@H](C)[C@]2(C)C1 [nootkatone]
concentration inhibiting tunneling and feeding behaviors [2]: 100 mg/kg
